Data taken from patent publication US6906098B2, “Mixed steroidal 1,2,4,5-tetraoxane compounds and methods of making and using thereof” (priority 2002, dated 2005).
Converted amounts (≈) assume the structure as drawn. Read-outs that look alike come from different tables or passages of the source.

Legend:
[1] = tested on: Plasmodium falciparum chloroquine-susceptible strain D6; assay: In vitro antimalarial drug susceptibility assay (radiolabeled hypoxanthine incorporation), strain D6; type: cell-based; details: for Strain D6 IC50: growth inhibition, chloroquine-susceptible strain D6, 66 h incubation; for IC50: Plasmodium falciparum, D6, 66 h, read-out: Strain D6 IC50, growth inhibition, chloroquine-susceptible strain D6, 66 h incubation
[2] = tested on: Plasmodium falciparum chloroquine-resistant strain W2; assay: microbe, parasite or virus in culture; type: cell-based; details: for Strain W2 IC50: growth inhibition, chloroquine-resistant strain W2, 66 h incubation; for IC50: Plasmodium falciparum, W2, 66 h, read-out: Strain W2 IC50, growth inhibition, chloroquine-resistant strain W2, 66 h incubation
[3] = tested on: D6 and W2 P. falciparum clones; type: cell-based, Plasmodium falciparum; details: IC50 (W2)/IC50 (D6) ratio
[4] = tested on: Mycobacterium tuberculosis H37Rv (ATCC 27294); assay: Primary screen, Microplate Alamar Blue Assay (MABA), percent inhibition; type: cell-based; details: Mycobacterium tuberculosis, primary screening at 6.25 μg/ml
In short: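 Single-concentration screen at 6.25 μg/ml (or molar equivalent of the heaviest congener in a series) against H37Rv grown in BACTEC 12B medium. Growth read by Microplate Alamar Blue Assay, reported as percent inhibition.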

M. tuberculosis H37Rv = assay: Minimum inhibitory concentration (MIC) in the MABA; type: cell-based, Mycobacterium tuberculosis; details: Mycobacterium tuberculosis, H37RV, read-out: MIC
In short: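 Run under the NIAID TAACF screening program against M. tuberculosis by fluorescence read-out. MIC taken as the lowest concentration giving 90% reduction in fluorescence relative to controls.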

[5] = tested on: IGROV1 ovarian cancer cell line; assay: NCI in vitro antiproliferative screen (SRB), IGROV1; type: cell-based, human; details: IGROV1, after 48 h
Procedure: (§1) In preliminary tests, four compounds (1B14a, 1C44, 1C45, and 1C46) were chosen by NIH-NCI for in vitro screening. See Drug discovery and development program, National Cancer Institute, Bethesda, (NCI), http://dtp.nci.nih.gov. All tetraoxanes were evaluated in the 3-cell line (lung—NCI-H460, breast—MCF7, CNS-SF-268) one dose primary anticancer assay: growth percentage after 48 hours, at 100 μM concentration of tested compound. Two compounds were eliminated at this step (1B14a and 1C46), while the acid 1C44 and primary amide 1C45 were evaluated against the full panel of 60 human tumor cell lines starting with 10^−4 M concentration of investigated compounds.
(§2) The activity of numerous compounds of the present invention against various cancer cell lines was submitted to the Developmental Therapeutics Program (DTP) at the National Cancer Institute (NCI) of the National Institutes of Health (NIH) for screening.
(§3) The DTP Human Tumor Cell Line Screen utilizes 60 different human tumor cell lines, representing leukemia, melanoma and cancers of the lung, colon, brain, ovary, breast, prostate, and kidney according to conventional methods known in the art. See e.g. Alley, M. C., et al. (1988) Cancer Research 48:589-601; Grever, M. R., et al. (1992) Seminars in Oncology 19(6):622-638; and Boyd, M. R., and Paull, K. D. (1995) Drug Development Research 34:91-109, which are herein incorporated by reference.
(§4) Generally, the human tumor cell lines of the cancer screening panel are grown in RPMI 1640 medium containing 5% fetal bovine serum and 2 mM L-glutamine. For a typical screening experiment, cells are inoculated into 96 well microtiter plates in 100 μl at plating densities ranging from 5,000 to 40,000 cells/well depending on the doubling time of individual cell lines. After cell inoculation, the microtiter plates are incubated at 37° C., 5% CO2, 95% air and 100% relative humidity for 24 hours prior to addition of the compounds to be tested.
(§5) After 24 hours, two plates of each cell line are fixed in situ with TCA, to represent a measurement of the cell population for each cell line at the time of drug addition (Tz). Experimental drugs are solubilized in dimethyl sulfoxide at 400-fold the desired final maximum test concentration and stored frozen prior to use. At the time of drug addition, an aliquot of frozen concentrate is thawed and diluted to twice the desired final maximum test concentration with complete medium containing 50 μg/ml gentamicin. Additional four, 10-fold or ½ log serial dilutions are made to provide a total of five drug concentrations plus control. Aliquots of 100 μl of these different drug dilutions are added to the appropriate microtiter wells already containing 100 μl of medium, resulting in the required final drug concentrations.
(§6) Following drug addition, the plates are incubated for an additional 48 hours at 37° C., 5% CO2, 95% air, and 100% relative humidity. For adherent cells, the assay is terminated by the addition of cold TCA. Cells are fixed in situ by the gentle addition of 50 μl of cold 50% (w/v) TCA (final concentration, 10% TCA) and incubated for 60 minutes at 4° C. The supernatant is discarded, and the plates are washed five times with tap water and air dried. Sulforhodamine B (SRB) solution (100 μl) at 0.4% (w/v) in 1% acetic acid is added to each well, and plates are incubated for 10 minutes at room temperature. […]

[6] = tested on: TK-10 renal cancer cell line; assay: NCI in vitro antiproliferative screen (SRB), TK-10; type: cell-based, human; details: TK-10, after 48 h; for GI50 / CC50: Homo sapiens; for CC50: read-out: LC50 (the source's name)
Procedure: as §1, §2, §3, §4, §5, §6

[7] = tested on: UO-31 renal cancer cell line; assay: NCI in vitro antiproliferative screen (SRB), UO-31; type: cell-based, human; details: UO-31, after 48 h; for GI50 / CC50: Homo sapiens; for CC50: read-out: LC50 (the source's name)
Procedure: as §1, §2, §3, §4, §5, §6

SR leukemia cell line = assay: NCI in vitro antiproliferative screen (SRB), SR; type: cell-based, human; details: after 48 h; for GI50 / CC50: Homo sapiens; for CC50: read-out: LC50 (the source's name)
Procedure: as §1, §2, §3, §4, §5, §6

[8] = tested on: KM-12 colon cancer cell line; assay: NCI in vitro antiproliferative screen (SRB), KM-12; type: cell-based, human; details: KM-12, after 48 h; for GI50 / CC50: Homo sapiens, KM12; for CC50: read-out: LC50 (the source's name)
Procedure: as §1, §2, §3, §4, §5, §6

[9] = tested on: MALME-3M melanoma cancer cell line; assay: NCI in vitro antiproliferative screen (SRB), MALME-3M; type: cell-based, human; details: for GI50 / CC50: Homo sapiens; for CC50: read-out: LC50 (the source's name)
Procedure: as §1, §2, §3, §4, §5, §6

VERO cells [10] = details: ratio of IC50 in VERO cells to MIC (M. tuberculosis H37Rv)
VERO cells [11] = assay: cells; details: Chlorocebus sabaeus, Table 5
[12] = Table 3, H37Rv, read-out: Inhibition (%)
[13] = Table 5, Alamar assay, read-out: % Inhib
[14] = Table 5, Alamar assay, M. tuberculosis H37Rv
[15] = MALME-3M, after 48 h, read-out: GI50

Row | Structure (SMILES) | Resistance Index [3] | inhibition at 6.25 µg/mL [4, 13] | MIC (M. tuberculosis H37Rv; [14]) | GI50 ([5]; Homo sapiens, IGROV-1) | TGI [5] | GI50 [6] | CC50 [6] | TGI [6] | GI50 [7] | CC50 [7] | TGI [7] | GI50 (SR leukemia cell line) | CC50 (SR leukemia cell line) | GI50 [8] | CC50 [8] | TGI [8] | GI50 [9, 15] | CC50 ([9]; MALME-3M, after 48 h) | TGI ([9]; MALME-3M, after 48 h) | SI (selectivity index) (VERO cells [10]) | other results
1 | CC(=O)O[C@H]1CC2C(C3CC[C@H](C(C)CCC(=O)O)[C@]31C)[C@H](OC(C)=O)C[C@@H]1CC3(CC[C@]21C)OOC1(CCC(c2ccccc2)CC1)OO3 (single isomer, unassigned) [Compound 1C44, 7α,12α-Diacetoxy-5β-cholan-24-oic acid-3-spiro-6′-(1′,2′,4′,5′-tetraoxacyclohexane)-3′-spiro-1″-((4″R or S)-phenyl)cyclohexane] | 0.98 | 94% | 6.25 µg/mL (≈ 8.97 µM) | 0.26 µM | 0.82 µM | 1.99 µM | 27 µM | 5.94 µM | 1.83 µM | 6.73 µM | 3.51 µM | 1.83 µM | 100 µM | 1.96 µM | 40.1 µM | 5.36 µM | 2.27 µM | 47 µM | 9.14 µM | 0.17 | Strain D6 IC50 [1]: 0.00619 µg/mL; Strain W2 IC50 [2]: 0.00609 µg/mL; inhibition at 6.25 µg/mL [4, 12]: 94%; MIC (M. tuberculosis H37Rv; Table 3, H37Rv): 6.25 µg/mL (≈ 8.97 µM); LC50 (concentration killing 50% of cells) ([5]; Homo sapiens, IGROV-1): 3.76 µM; TGI (SR leukemia cell line): 5.92 µM; IC50 (VERO cells [11]): 1.07 µg/mL (≈ 1.54 µM)
2 | CC(=O)O[C@H]1CC2C(C3CC[C@H](C(C)CCC(N)=O)[C@]31C)[C@H](OC(C)=O)C[C@@H]1CC3(CC[C@]21C)OOC1(CCC(c2ccccc2)CC1)OO3 (single isomer, unassigned) [Compound 1C45, 7α,12α-Diacetoxy-5β-cholan-24-amide-3-spiro-6′-(1′,2′,4′,5′-tetraoxacyclohexane)-3′-spiro-1″-((4″R or S)-phenyl)cyclohexane] | 1.02 | 93% | 6.25 µg/mL (≈ 8.98 µM) | 0.295 µM | 1.11 µM | 2.7 µM | 8.07 µM | 4.66 µM | 0.36 µM | 4.57 µM | 1.35 µM | 0.29 µM | 100 µM | 1.19 µM | 7.15 µM | 2.92 µM | 0.02 µM | 37.3 µM | 3.99 µM | – | Strain D6 IC50 [1]: 0.00719 µg/mL; Strain W2 IC50 [2]: 0.00736 µg/mL; inhibition at 6.25 µg/mL [4, 12]: 93%; MIC (M. tuberculosis H37Rv; Table 3, H37Rv): 6.25 µg/mL (≈ 8.98 µM); GI50 ([9]; Malme-3M): 0.02 µM
3 | COC(=O)CNC(=O)CCC(C)[C@H]1CCC2C3C(C[C@H](OC(C)=O)[C@@]21C)[C@@]1(C)CCC2(C[C@H]1C[C@H]3OC(C)=O)OOC1(CCCCC1)OO2 (stereo partly drawn) [12/1C21, N-(Methyl ethanoate-2-yl)-7α,12α-diacetoxy-5β-cholan-24-amide-3-spiro-6′-(1′,2′,4′,5′-tetraoxacyclohexane)-3′-spirocyclohexane] | 0.49 | 99% | 6.25 µg/mL (≈ 9.03 µM) | – | – | – | – | – | – | – | – | – | – | – | – | – | – | – | – | 0.87 | IC50 [1]: 0.0152 µg/mL (≈ 0.022 µM); IC50 [2]: 0.00745 µg/mL (≈ 0.0108 µM); Resistance Index ([3]; listed as 12): ca. 0.5; IC50 (VERO cells [11]): 5.42 µg/mL (≈ 7.83 µM)
4 | CNC(=O)CCC(C)[C@H]1CCC2C3C(C[C@H](OC(C)=O)[C@@]21C)[C@@]1(C)CCC2(C[C@H]1C[C@H]3OC(C)=O)OOC1(CCCCC1C)OO2 (stereo partly drawn) [14/1C23, N-Methyl-7α,12α-diacetoxy-5β-cholan-24-amide-3-spiro-6′-(1′,2′,4′,5′-tetraoxacyclohexane)-3′-spiro-1″-(2″-methyl)cyclohexane] | 0.64 | 99% | 3.13 µg/mL (≈ 4.83 µM) | – | – | – | – | – | – | – | – | – | – | – | – | – | – | – | – | 1.8 | IC50 [1]: 0.0102 µg/mL (≈ 0.0158 µM); IC50 [2]: 0.00649 µg/mL (≈ 0.01 µM); IC50 (VERO cells [11]): 5.63 µg/mL (≈ 8.69 µM)
5 | CCNC(=O)CCC(C)[C@H]1CCC2C3C(C[C@H](OC(C)=O)[C@@]21C)[C@@]1(C)CCC2(C[C@H]1C[C@H]3OC(C)=O)OOC1(CCCCC1C)OO2 (stereo partly drawn) [15/1C24, N-Ethyl-7α,12α-diacetoxy-5β-cholan-24-amide-3-spiro-6′-(1′,2′,4′,5′-tetraoxacyclohexane)-3′-spiro-1″-(2″-methyl)cyclohexane] | 0.55 | 98% | 3.13 µg/mL (≈ 4.73 µM) | – | – | – | – | – | – | – | – | – | – | – | – | – | – | – | – | 2.24 | IC50 [1]: 0.00837 µg/mL (≈ 0.0126 µM); IC50 [2]: 0.00461 µg/mL (≈ 0.00697 µM); IC50 (VERO cells [11]): 7.02 µg/mL (≈ 10.6 µM)
6 | C[C@@H]1CC[C@H]2[C@@H](C)C(=O)O[C@@H]3O[C@@]4(C)CC[C@@H]1[C@]32OO4 [Artemisinin, reference compound] | – | – | – | 79.4 µM | 100 µM | 100 µM | 100 µM | 100 µM | 79.4 µM | 100 µM | 100 µM | 100 µM | 100 µM | 100 µM | 100 µM | 100 µM | 100 µM | 100 µM | 100 µM | – | TGI (SR leukemia cell line): 100 µM
7 | CC(=O)O[C@H]1C(=O)[C@@]2(C)[C@H]([C@H](OC(=O)c3ccccc3)[C@]3(O)C[C@H](OC(=O)[C@H](O)[C@@H](NC(=O)c4ccccc4)c4ccccc4)C(C)=C1C3(C)C)[C@]1(OC(C)=O)CO[C@@H]1C[C@@H]2O [Paclitaxel, reference compound] | – | – | – | 0.032 µM | 79.4 µM | 0.25 µM | 79.4 µM | 50.1 µM | 1.58 µM | 100 µM | 39.8 µM | 0.079 µM | 63.1 µM | 0.0079 µM | 100 µM | 79.4 µM | 2.51 µM | 79.4 µM | 50.1 µM | – | TGI (SR leukemia cell line): 63.1 µM
